Measurements published in US20010053758A1, “Methods and compositions for the treatment and prevention of lung disease” (priority 1999, published 2001).

Columns and labels:
[1] = system: alveolus formation (septation) in rat lung; experiment: Alveolus formation in newborn rat pups injected intraperitoneally daily (lung histology and morphometry); format: in vivo, Sprague-Dawley rat
Source text: The expression of the RARβ receptor has been associated in certain cases with diminished cell replication. Following the initial injection, the rat pups were subjected to identical daily injections until day 13. A set of rat pups were sacrificed at day 4 and at […] by anesthesia with phenobarbitol sodium and scission of the abdominal aorta. Following sacrifice, rat lungs were fixed and histological sections prepared essentially as described in Massaro et al., Am. J. Physiol. 270: L305 (1996), incorporated by reference herein. The histological sections were viewed and photographs taken under light microscopy.
The differences in alveolar dimensions between treated and untreated rat pups were so pronounced, they were quantitated by measuring the distance between alveolar walls (Lm) and the surface-to-volume ratio (S/V) of the gas-exchange structures (septa). The Lm in cottonseed oil-treated rats was 80 μm±2.8 μm (N=4) compared to 110 μm±7.3 μm (N=3) in RARβ agonist-treated rats (N=3; P=0.03 by Mann Whitney nonparametric analysis). The S/V was 504 μm^−1±18 μm^−1 (N=4) in cottonseed oil-treated rats compared to 365 μm^−1±23 μm^−1 (N=3) in RARβ agonist-treated rats (P=0.03).

RARβ = target: T1, RARβ (Homo sapiens, UniProt P10826); experiment: RAR receptor activity as stated for the retinoid ligand; conditions: ligand specific to RAR receptors and not to RXR receptors
T1 sequence (P10826 1-455): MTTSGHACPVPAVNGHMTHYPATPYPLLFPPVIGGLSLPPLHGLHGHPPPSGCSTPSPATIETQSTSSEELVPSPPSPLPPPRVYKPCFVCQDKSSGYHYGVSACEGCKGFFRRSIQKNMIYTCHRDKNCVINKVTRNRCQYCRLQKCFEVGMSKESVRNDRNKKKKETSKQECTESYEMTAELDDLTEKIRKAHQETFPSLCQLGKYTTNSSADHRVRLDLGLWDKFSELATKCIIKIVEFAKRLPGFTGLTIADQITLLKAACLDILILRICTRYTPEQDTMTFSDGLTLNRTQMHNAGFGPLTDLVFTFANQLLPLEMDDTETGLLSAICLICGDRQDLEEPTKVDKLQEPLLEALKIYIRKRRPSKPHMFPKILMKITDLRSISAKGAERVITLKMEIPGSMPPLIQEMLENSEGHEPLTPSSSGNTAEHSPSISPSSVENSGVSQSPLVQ
Source text: Likewise, methods of screening candidate compounds for Specific RAR modulating activity is routine and well-known in the art. For example, U.S. Pat. No. 5,455,265, incorporated by reference herein, describes a chimeric receptor transactivation assay which tests for RAR-agonist activity in the RAR-α, RAR-β, RAR-γ, RXR-α receptor subtypes. Briefly, this assay employs chimeric proteins containing an RAR ligand-binding domain and a heterologous polypeptide segment having the ability to bind to a response element (RE), in turn facilitating transcription of a specific, measurable target gene, such as chloramphenicol acetyltransferase (CAT). Only an agonist of the given RAR isotype whose ligand binding domain comprises part of the chimeric protein will permit the activation of CAT transcription and expression. […] For example, those ligands able to stimulate CAT synthesis when used in combination with chimeric proteins having RAR binding domains, but not those having RXR ligand binding domains, will be RAR specific agonists.

[2] = system: alveolus formation in newborn rat lung; conditions: newborn rats; cited from earlier work
[3] = system: elastase-induced destruction of alveolar walls; conditions: elastase-treated rats; cited from earlier work

Row | SMILES | histological sections: alveolar size and degree of septation ([1]; age 14 days, treated daily from age 3 through 13 days, versus cottonseed oil alone (FIGS. 1A and 1B)) | distance between alveolar walls (Lm) ([1]; rat pups, 500 micrograms per kg i.p. daily from age 3 to 13 days, age 14 days, N=3, cottonseed oil control 80 μm±2.8 μm, P=0.03) [μm] | surface-to-volume ratio (S/V) of the gas-exchange structures ([1]; rat pups, 500 micrograms per kg i.p. daily from age 3 to 13 days, N=3, cottonseed oil control 504 μm^−1±18 μm^−1, P=0.03) [μm^−1] | surface area ([1]; rat pups, 500 micrograms per kg i.p. daily from age 3 to 13 days, cottonseed oil control 634 cm^2 ±9 cm^2, P=0.03) [cm^2] | Lung volume ([1]; treated rats versus cottonseed oil-treated rats) | receptor activity (RARβ) | effect on number of alveoli [2] | effect on elastase-induced alveolar wall destruction [3]
1 | CC1(C)CC=C(c2cccs2)c2cc(C#Cc3ccc(C(=O)O)cc3)ccc21 [AGN 193174] | alveoli were larger, and the degree of sepatation less | 110 | 365 | 492 | the same in both rat groups | RARβ agonist activity | – | –
2 | CC1=C(/C=C/C(C)=C/C=C/C(C)=C/C(=O)O)C(C)(C)CCC1 [all-trans-retinoic acid] | – | – | – | – | – | – | induced the formation of an increased number of alveoli in rats without enlarging the lung | appeared to reverse this destruction
